In patent US8758816B2, “Compositions comprising azelastine and methods of use thereof” (priority 2004, dated 2014):
Structures can show the parent of a compound that is named as a salt.

System: patients with seasonal allergic rhinitis (SAR)
Test: MP 428 study: individual symptom severity scores (runny nose, itchy nose, sneezing, congestion; 0-3 scale)
Assay type: in vivo, human
Conditions: Intent-to-Treat Population
Method: A two-week, randomized, double-blind study, which evaluated the effects of the co-administration of ASTELIN® (azelastine hydrochloride (HCl)) and FLONASE® (fluticasone propionate) compared to either product alone in patients with seasonal allergic rhinitis (SAR) was conducted during the 2006 Texas mountain cedar season. After a 5-day placebo lead-in period, 151 patients with moderate-to-severe allergic rhinitis symptoms were randomized to either: (1) (49 total patients) ASTELIN® (azelastine hydrochloride (HCl)) plus placebo saline nasal spray 2 sprays per nostril, 15 minutes apart, twice daily (AM & PM); (2) (50 total patients) FLONASE® (fluticasone propionate) plus placebo saline nasal spray, 2 sprays per nostril, 15 minutes apart, once daily (AM) and two sessions of placebo saline nasal spray, 2 sprays per nostril, 15 minutes apart (PM); or (3) (52 total patients) the co-administration of ASTELIN® (azelastine hydrochloride (HCl)) 2 sprays per nostril plus FLONASE® (fluticasone propionate) 2 sprays per nostril (AM), 15 minutes apart, and ASTELIN® (azelastine hydrochloride (HCl)) 2 sprays per nostril plus placebo saline nasal spray, 15 minutes apart, (PM) for a 2-week double-blind treatment period.
The primary efficacy variable was the change from baseline in the Total Nasal Symptom Score (TNSS), which comprised sneezing, itchy nose, runny nose, and nasal congestion (individual symptoms scores were assigned a value between 0 and 3, where 0=no symptoms and 3=severe symptoms). This study was not statistically designed to assess the differences between ASTELIN® and FLONASE®.
The results of the clinical trial are summarized and presented in Appendix A hereinbelow and in FIGS. 1-6. […] FIGS. 2-5 show the mean improvement in severity score (0-3 scale) from baseline for the symptoms of runny nose, itchy nose, sneezing and congestion, respectively.

Q: Which results are given for `CN1CCCC(n2nc(Cc3ccc(Cl)cc3)c3ccccc3c2=O)CC1` (racemic) [Azelastine, (±)-1-(2H)-phthalazinone, 4-[(4-chlorophenyl)methyl]-2-(hexahydro-1-methyl-1H-azepin-4-yl)-, mono-hydrochloride]?
A: Change from Baseline in AM and PM Combined Nasal Symptom Score: Congestion, LS Mean (Day 9): −1.20; Change from Baseline in AM and PM Combined Nasal Symptom Score: Congestion, Mean (Day 9): −1.23; Change from Baseline in AM and PM Combined Nasal Symptom Score: Congestion, Median (Day 9): −1.00; Change from Baseline in AM and PM Combined Nasal Symptom Score: Itchy Nose, LS Mean (Day 9): −1.29; Change from Baseline in AM and PM Combined Nasal Symptom Score: Itchy Nose, Mean (Day 9): −1.27; Change from Baseline in AM and PM Combined Nasal Symptom Score: Itchy Nose, Median (Day 9): −0.93; Change from Baseline in AM and PM Combined Nasal Symptom Score: Runny Nose, LS Mean (Day 9): −1.14; Change from Baseline in AM and PM Combined Nasal Symptom Score: Runny Nose, Mean (Day 9): −1.15; Change from Baseline in AM and PM Combined Nasal Symptom Score: Runny Nose, Median (Day 9): −0.90; Change from Baseline in AM and PM Combined Nasal Symptom Score: Sneezing, LS Mean (Day 9): −1.72; Change from Baseline in AM and PM Combined Nasal Symptom Score: Sneezing, Mean (Day 9): −1.73; Change from Baseline in AM and PM Combined Nasal Symptom Score: Sneezing, Median (Day 9): −1.67; Percent Change from Baseline in AM and PM Combined Nasal Symptom Score: Congestion, LS Mean (Day 9): −21.68%; Percent Change from Baseline in AM and PM Combined Nasal Symptom Score: Congestion, Mean (Day 9): −22.05%; Percent Change from Baseline in AM and PM Combined Nasal Symptom Score: Congestion, Median (Day 9): −18.64%; Percent Change from Baseline in AM and PM Combined Nasal Symptom Score: Itchy Nose, LS Mean (Day 9): −27.69%; Percent Change from Baseline in AM and PM Combined Nasal Symptom Score: Itchy Nose, Mean (Day 9): −26.97%; Percent Change from Baseline in AM and PM Combined Nasal Symptom Score: Itchy Nose, Median (Day 9): −21.57%; Percent Change from Baseline in AM and PM Combined Nasal Symptom Score: Runny Nose, LS Mean (Day 9): −23.07%; Percent Change from Baseline in AM and PM Combined Nasal Symptom Score: Runny Nose, Mean (Day 9): −23.25%; Percent Change from Baseline in AM and PM Combined Nasal Symptom Score: Runny Nose, Median (Day 9): −21.74%; Percent Change from Baseline in AM and PM Combined Nasal Symptom Score: Sneezing, LS Mean (Day 9): −36.31%; Percent Change from Baseline in AM and PM Combined Nasal Symptom Score: Sneezing, Mean (Day 9): −36.04%; Percent Change from Baseline in AM and PM Combined Nasal Symptom Score: Sneezing, Median (Day 9): −35.48%; Change from Baseline in AM and PM Combined Nasal Symptom Score: Congestion, LS Mean (Day 10): −1.12; Change from Baseline in AM and PM Combined Nasal Symptom Score: Congestion, Mean (Day 10): −1.17; Change from Baseline in AM and PM Combined Nasal Symptom Score: Congestion, Median (Day 10): −1.00; Change from Baseline in AM and PM Combined Nasal Symptom Score: Itchy Nose, LS Mean (Day 10): −1.35; Change from Baseline in AM and PM Combined Nasal Symptom Score: Itchy Nose, Mean (Day 10): −1.35; Change from Baseline in AM and PM Combined Nasal Symptom Score: Itchy Nose, Median (Day 10): −1.10; Change from Baseline in AM and PM Combined Nasal Symptom Score: Runny Nose, LS Mean (Day 10): −1.11; Change from Baseline in AM and PM Combined Nasal Symptom Score: Runny Nose, Mean (Day 10): −1.13; Change from Baseline in AM and PM Combined Nasal Symptom Score: Runny Nose, Median (Day 10): −0.83; Change from Baseline in AM and PM Combined Nasal Symptom Score: Sneezing, LS Mean (Day 10): −1.70; Change from Baseline in AM and PM Combined Nasal Symptom Score: Sneezing, Mean (Day 10): −1.71; Change from Baseline in AM and PM Combined Nasal Symptom Score: Sneezing, Median (Day 10): −1.75; Percent Change from Baseline in AM and PM Combined Nasal Symptom Score: Congestion, LS Mean (Day 10): −20.32%; Percent Change from Baseline in AM and PM Combined Nasal Symptom Score: Congestion, Mean (Day 10): −20.94%; Percent Change from Baseline in AM and PM Combined Nasal Symptom Score: Congestion, Median (Day 10): −16.67%; Percent Change from Baseline in AM and PM Combined Nasal Symptom Score: Itchy Nose, LS Mean (Day 10): −29.83%; Percent Change from Baseline in AM and PM Combined Nasal Symptom Score: Itchy Nose, Mean (Day 10): −29.56%; Percent Change from Baseline in AM and PM Combined Nasal Symptom Score: Itchy Nose, Median (Day 10): −21.57%; Percent Change from Baseline in AM and PM Combined Nasal Symptom Score: Runny Nose, LS Mean (Day 10): −22.00%; Percent Change from Baseline in AM and PM Combined Nasal Symptom Score: Runny Nose, Mean (Day 10): −22.22%; Percent Change from Baseline in AM and PM Combined Nasal Symptom Score: Runny Nose, Median (Day 10): −16.67%; Percent Change from Baseline in AM and PM Combined Nasal Symptom Score: Sneezing, LS Mean (Day 10): −41.13%; Percent Change from Baseline in AM and PM Combined Nasal Symptom Score: Sneezing, Mean (Day 10): −40.82%; Percent Change from Baseline in AM and PM Combined Nasal Symptom Score: Sneezing, Median (Day 10): −38.78%; Change from Baseline in AM and PM Combined Nasal Symptom Score: Congestion, LS Mean (Day 11): −1.18; Change from Baseline in AM and PM Combined Nasal Symptom Score: Congestion, Mean (Day 11): −1.23; Change from Baseline in AM and PM Combined Nasal Symptom Score: Congestion, Median (Day 11): −0.92; Change from Baseline in AM and PM Combined Nasal Symptom Score: Itchy Nose, LS Mean (Day 11): −1.39; Change from Baseline in AM and PM Combined Nasal Symptom Score: Itchy Nose, Mean (Day 11): −1.37; Change from Baseline in AM and PM Combined Nasal Symptom Score: Itchy Nose, Median (Day 11): −1.10; Change from Baseline in AM and PM Combined Nasal Symptom Score: Runny Nose, LS Mean (Day 11): −1.35; Change from Baseline in AM and PM Combined Nasal Symptom Score: Runny Nose, Mean (Day 11): −1.38; Change from Baseline in AM and PM Combined Nasal Symptom Score: Runny Nose, Median (Day 11): −1.10; Change from Baseline in AM and PM Combined Nasal Symptom Score: Sneezing, LS Mean (Day 11): −1.79; Change from Baseline in AM and PM Combined Nasal Symptom Score: Sneezing, Mean (Day 11): −1.79; Change from Baseline in AM and PM Combined Nasal Symptom Score: Sneezing, Median (Day 11): −1.55; Percent Change from Baseline in AM and PM Combined Nasal Symptom Score: Congestion, LS Mean (Day 11): −20.72%; Percent Change from Baseline in AM and PM Combined Nasal Symptom Score: Congestion, Mean (Day 11): −21.53%; Percent Change from Baseline in AM and PM Combined Nasal Symptom Score: Congestion, Median (Day 11): −16.67%; Percent Change from Baseline in AM and PM Combined Nasal Symptom Score: Itchy Nose, LS Mean (Day 11): −30.38%; Percent Change from Baseline in AM and PM Combined Nasal Symptom Score: Itchy Nose, Mean (Day 11): −29.59%; Percent Change from Baseline in AM and PM Combined Nasal Symptom Score: Itchy Nose, Median (Day 11): −22.33%; Percent Change from Baseline in AM and PM Combined Nasal Symptom Score: Runny Nose, LS Mean (Day 11): −25.36%; Percent Change from Baseline in AM and PM Combined Nasal Symptom Score: Runny Nose, Mean (Day 11): −25.83%; Percent Change from Baseline in AM and PM Combined Nasal Symptom Score: Runny Nose, Median (Day 11): −21.57%; Percent Change from Baseline in AM and PM Combined Nasal Symptom Score: Sneezing, LS Mean (Day 11): −43.40%; Percent Change from Baseline in AM and PM Combined Nasal Symptom Score: Sneezing, Mean (Day 11): −42.70%; Percent Change from Baseline in AM and PM Combined Nasal Symptom Score: Sneezing, Median (Day 11): −38.78%; Change from Baseline in AM and PM Combined Nasal Symptom Score: Congestion, LS Mean (Day 12): −1.21; Change from Baseline in AM and PM Combined Nasal Symptom Score: Congestion, Mean (Day 12): −1.27; Change from Baseline in AM and PM Combined Nasal Symptom Score: Congestion, Median (Day 12): −1.00; Change from Baseline in AM and PM Combined Nasal Symptom Score: Itchy Nose, LS Mean (Day 12): −1.33; Change from Baseline in AM and PM Combined Nasal Symptom Score: Itchy Nose, Mean (Day 12): −1.33; Change from Baseline in AM and PM Combined Nasal Symptom Score: Itchy Nose, Median (Day 12): −1.00; Change from Baseline in AM and PM Combined Nasal Symptom Score: Runny Nose, LS Mean (Day 12): −1.22; Change from Baseline in AM and PM Combined Nasal Symptom Score: Runny Nose, Mean (Day 12): −1.25; Change from Baseline in AM and PM Combined Nasal Symptom Score: Runny Nose, Median (Day 12): −0.43; Change from Baseline in AM and PM Combined Nasal Symptom Score: Sneezing, LS Mean (Day 12): −1.63; Change from Baseline in AM and PM Combined Nasal Symptom Score: Sneezing, Mean (Day 12): −1.63; Change from Baseline in AM and PM Combined Nasal Symptom Score: Sneezing, Median (Day 12): −1.73
